The results in this text go back to patent US20200085838A1, “METHODS OF TREATING EPILEPSY AND NEURODEVELOPMENTAL DISORDERS” (Praxis Precision Medicines, Inc., priority 2017, published 2020).

What all share (type): cell-based
Experiment [1] deals with T1, human K905N Nav1.2 (Homo sapiens, UniProt Q99250, K905N).
T1 construct: expressed in transfected cells; host or cells: CHO cells
As to the kind of experiment: Whole-cell patch clamp of sodium currents (INa) in CHO cells transiently expressing K905N Nav1.2. To be noted: K905N Nav1.2, CHO cells, mean±SEM.

Experiment [2] has as its target T2, human R1882Q Nav1.2 (Homo sapiens, UniProt Q99250, R1882Q).
T2 construct: expressed in transfected cells; host or cells: CHO cells
As to the kind of experiment: Whole-cell patch clamp of sodium currents (INa) in CHO cells transiently expressing R1882Q Nav1.2. The note with it: R1882Q Nav1.2, CHO cells, mean±SEM.

Experiment [3] addresses T3, human wild-type (WT) Nav1.2 (Homo sapiens, UniProt Q99250).
T3 construct: expressed in transfected cells; host or cells: CHO cells
As to the kind of experiment: Whole-cell patch clamp of sodium currents (INa) in CHO cells transiently expressing wild-type Nav1.2. To be noted: WT Nav1.2, CHO cells, mean±SEM.

T1 sequence (Q99250 whole entry K905N): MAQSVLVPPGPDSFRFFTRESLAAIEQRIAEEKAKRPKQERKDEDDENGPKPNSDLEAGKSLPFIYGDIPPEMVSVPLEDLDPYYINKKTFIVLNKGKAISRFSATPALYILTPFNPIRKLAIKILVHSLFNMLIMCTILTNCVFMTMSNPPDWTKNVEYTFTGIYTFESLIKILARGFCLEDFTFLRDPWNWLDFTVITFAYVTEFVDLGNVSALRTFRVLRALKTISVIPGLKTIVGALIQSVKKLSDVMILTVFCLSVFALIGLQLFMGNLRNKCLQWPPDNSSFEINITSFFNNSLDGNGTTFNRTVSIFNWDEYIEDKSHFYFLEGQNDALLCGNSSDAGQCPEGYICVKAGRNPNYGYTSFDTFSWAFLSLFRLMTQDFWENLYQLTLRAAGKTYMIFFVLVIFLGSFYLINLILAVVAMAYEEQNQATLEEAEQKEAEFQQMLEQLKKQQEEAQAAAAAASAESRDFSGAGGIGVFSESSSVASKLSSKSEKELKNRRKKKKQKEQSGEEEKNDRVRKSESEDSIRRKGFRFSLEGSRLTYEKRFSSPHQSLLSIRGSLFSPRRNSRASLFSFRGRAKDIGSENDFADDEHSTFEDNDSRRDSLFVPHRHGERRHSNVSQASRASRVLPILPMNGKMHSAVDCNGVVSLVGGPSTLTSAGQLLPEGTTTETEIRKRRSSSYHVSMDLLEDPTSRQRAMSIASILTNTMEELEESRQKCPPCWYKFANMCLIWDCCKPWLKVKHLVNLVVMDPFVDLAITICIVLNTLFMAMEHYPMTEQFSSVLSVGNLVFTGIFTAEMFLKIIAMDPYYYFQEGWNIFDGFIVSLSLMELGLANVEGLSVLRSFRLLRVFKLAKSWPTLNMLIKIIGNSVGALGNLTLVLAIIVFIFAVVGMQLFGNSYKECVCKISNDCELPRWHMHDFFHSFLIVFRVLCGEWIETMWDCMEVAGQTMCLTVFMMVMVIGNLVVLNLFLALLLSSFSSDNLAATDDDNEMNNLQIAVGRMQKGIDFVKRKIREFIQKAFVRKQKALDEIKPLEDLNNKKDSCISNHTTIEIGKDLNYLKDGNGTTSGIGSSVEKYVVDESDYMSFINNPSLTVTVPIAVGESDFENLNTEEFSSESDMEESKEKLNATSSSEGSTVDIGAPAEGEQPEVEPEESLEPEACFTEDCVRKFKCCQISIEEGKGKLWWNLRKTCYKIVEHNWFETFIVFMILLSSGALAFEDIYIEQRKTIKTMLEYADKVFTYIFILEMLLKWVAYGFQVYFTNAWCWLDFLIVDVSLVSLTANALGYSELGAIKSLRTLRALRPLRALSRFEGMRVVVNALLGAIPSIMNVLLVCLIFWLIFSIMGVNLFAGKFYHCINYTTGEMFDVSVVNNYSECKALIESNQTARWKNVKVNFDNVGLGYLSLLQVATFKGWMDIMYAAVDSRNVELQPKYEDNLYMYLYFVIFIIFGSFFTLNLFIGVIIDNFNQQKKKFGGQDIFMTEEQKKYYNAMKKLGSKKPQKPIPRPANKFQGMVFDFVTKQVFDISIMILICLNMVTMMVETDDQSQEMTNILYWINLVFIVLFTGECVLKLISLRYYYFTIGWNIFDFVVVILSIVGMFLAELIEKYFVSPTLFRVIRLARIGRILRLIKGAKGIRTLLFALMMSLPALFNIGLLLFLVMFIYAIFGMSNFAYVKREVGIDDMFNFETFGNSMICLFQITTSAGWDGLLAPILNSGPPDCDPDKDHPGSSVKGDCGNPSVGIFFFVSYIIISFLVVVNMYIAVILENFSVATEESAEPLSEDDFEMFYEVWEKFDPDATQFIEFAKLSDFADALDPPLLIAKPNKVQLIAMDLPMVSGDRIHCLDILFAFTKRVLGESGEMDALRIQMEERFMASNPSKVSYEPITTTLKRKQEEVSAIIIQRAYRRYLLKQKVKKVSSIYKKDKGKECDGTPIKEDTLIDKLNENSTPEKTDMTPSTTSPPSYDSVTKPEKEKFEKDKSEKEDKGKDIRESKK
T3 sequence (Q99250 whole entry): as the sequence (Q99250 whole entry K905N) above, with N905K counted along it
T2 sequence (Q99250 whole entry R1882Q): as the sequence (Q99250 whole entry K905N) above, with N905K, R1882Q counted along it

In the case of `O=C1c2cc(-c3ccc(OC(F)(F)F)cc3)ccc2OCCN1Cc1ncccn1` [eleclazine, 4-(pyrimidin-2-ylmethyl)-7-(4-(trifluoromethoxy)phenyl)-3,4-dihydrobenzo[f][1,4]oxazepin-5(2H)-one], the “Hill slope Late INa” value in experiment [1] (late INa at 100 ms) is on record as 0.55 ± 0.06; in experiment [2] (late INa at 100 ms) it was 0.64 ± 0.2; in experiment [3] (late INa at 100 ms, INaL enhanced with 3 nM ATX-II) it was 0.94 ± 0.06. Further, the “Hill slope Peak INa” value in experiment [1] (peak INa) is recorded as 0.78 ± 0.2; in experiment [2] (peak INa) it was 0.36 ± 0.14; in experiment [3] (peak INa), 0.63 ± 0.07.
